This note sets out measurements from patent US20230159453A1 (COCRYSTAL PHARMA, INC., priority 2020, published 2023).

Where two headings read alike, the source gives them in different places.

For the assay, the target named is SARS2 protease (Severe acute respiratory syndrome coronavirus 2, UniProt P0DTD1). Description: SARS-CoV-2 protease inhibition assay (SARS2 FRET protease assay). In kind it is biochemical.
The mark [1] stands for this setting: SARS-CoV-2 protease 25 nM, FRET, peptide substrate 1.3 μM, 30 minutes at 30° C., compounds 20 μM to 1.0 nM, read-out: IC50.

Broadly, the IC50 is the concentration needed to halve the response being measured. Turning to `CCCC[C@H](NC(=O)OC(c1ccccc1)C(C)(C)c1cccc(Cl)c1)C(=O)N[C@@H](CC1CCNC1=O)C(=O)C(=O)NC1CC1` (stereo partly drawn) [Compound C174, 2-(3-Chlorophenyl)-2-methyl-1-phenylpropyl ((S)-1-(((S)-4-(cyclopropylamino)-3,4-dioxo-1-((S)-2-oxopyrrolidin-3-yl)butan-2-yl)amino)-1-oxohexan-2-yl) carbamate], the IC50 under setting [1] turned out to be 8.2 nM.
Regarding `O=C(N[C@@H](CC1CCCCC1)C(=O)NC(CC1CC2(CCOCC2)NC1=O)C(=O)C(=O)NC1CC1)OCc1cccc(Cl)c1` (stereo partly drawn) [Compound C176, 3-Chlorobenzyl ((2S)-3-cyclohexyl-1-((4-(cyclopropylamino)-3,4-dioxo-1-(2-oxo-8-oxa-1-azaspiro[4.5]decan-3-yl)butan-2-yl)amino)-1-oxopropan-2-yl)carbamate], the IC50 under setting [1] was 1570 nM.
On the same count and under the same terms, the figure for `CS(=O)(=O)N1CCC2(CC1)CC(CC(NC(=O)[C@H](CC1CCCCC1)NC(=O)OC1CCCC1Cc1cccc(Cl)c1)C(=O)C(=O)NC1CC1)C(=O)N2` (stereo partly drawn) [Compound C177, 2-(3-chlorobenzyl)cyclopentyl ((2S)-3-cyclohexyl-1-((4-(cyclopropylamino)-1-(8-(methylsulfonyl)-2-oxo-1,8-diazaspiro[4.5]decan-3-yl)-3,4-dioxobutan-2-yl)amino)-1-oxopropan-2-yl)carbamate] is 4390 nM; for `CS(=O)(=O)N1CCC2(CC1)CC(C[C@@H](C=O)NC(=O)[C@H](CC1CCCCC1)NC(=O)OCc1cccc(Cl)c1)C(=O)N2` (stereo partly drawn) [Compound C178, 3-Chlorobenzyl ((2S)-3-cyclohexyl-1-(((2S)-1-(8-(methylsulfonyl)-2-oxo-1,8-diazaspiro[4.5]decan-3-yl)-3-oxopropan-2-yl)amino)-1-oxopropan-2-yl)carbamate] it is 71 nM.
With `COc1cccc2[nH]c(C(=O)N[C@@H](CC3CCCCC3)C(=O)NC(C=O)CC3CC4(CCOCC4)NC3=O)cc12` (stereo partly drawn) [Compound C179, N-((2S)-3-cyclohexyl-1-oxo-1-((1-oxo-3-(2-oxo-8-oxa-1-azaspiro[4.5]decan-3-yl)propan-2-yl)amino)propan-2-yl)-4-methoxy-1H-indole-2-carboxamide], under setting [1], the IC50 amounted to 0.015 nM.
For `CC1(C)CC(CC(C=O)NC(=O)[C@H](CC2CCCCC2)NC(=O)OC(Cc2cccc(Cl)c2)c2ccccc2)C(=O)N1` (stereo partly drawn) [Compound C180, 2-(3-Chlorophenyl)-1-phenylethyl ((2S)-3-cyclohexyl-1-((1-(5,5-dimethyl-2-oxopyrrolidin-3-yl)-3-oxopropan-2-yl)amino)-1-oxopropan-2-yl) carbamate], under setting [1], the IC50 amounted to 56.6 nM.
Regarding `CC(C)(c1cccc(Cl)c1)[C@@H](OC(=O)N[C@@H](CC1CCCCC1)C(=O)N[C@@H](C[C@@H]1CCNC1=O)C(=O)C(N)=O)c1cccc(F)c1` [Compound C182], the IC50 under setting [1] turned out to be 2470 nM.
Still for that read-out and setting: the figure for `CC(C)(c1cccc(Cl)c1)[C@H](OC(=O)N[C@@H](CC1CCCCC1)C(=O)N[C@@H](C[C@@H]1CCNC1=O)C(=O)C(N)=O)c1cccc(F)c1` [Compound C183] is 249 nM.
Same read-out and setting: then `CC(C)(c1cccc(Cl)c1)[C@@H](OC(=O)N[C@@H](CC1CCCCC1)C(=O)N[C@@H](C[C@@H]1CCNC1=O)C(=O)C(=O)NC1CC1)c1cccc(F)c1` [Compound C184, (S)-2-(3-chlorophenyl)-1-(3-fluorophenyl)-2-methylpropyl ((S)-3-cyclohexyl-1-(((S)-4-(cyclopropylamino)-3,4-dioxo-1-((S)-2-oxopyrrolidin-3-yl)butan-2-yl)amino)-1-oxopropan-2-yl)carbamate], with 2320 nM; and `CC(C)(c1cccc(Cl)c1)[C@H](OC(=O)N[C@@H](CC1CCCCC1)C(=O)N[C@@H](C[C@@H]1CCNC1=O)C(=O)C(=O)NC1CC1)c1cccc(F)c1` [Compound C185, (R)-2-(3-chlorophenyl)-1-(3-fluorophenyl)-2-methylpropyl ((S)-3-cyclohexyl-1-(((S)-4-(cyclopropylamino)-3,4-dioxo-1-((S)-2-oxopyrrolidin-3-yl)butan-2-yl)amino)-1-oxopropan-2-yl)carbamate], with 143 nM.
For `CC(C)(c1cccc(Cl)c1)C(OC(=O)N[C@@H](CC1CCCCC1)C(=O)N[C@@H](C[C@@H]1CCNC1=O)C(=O)C(=O)NC1CC1)c1ccccc1Cl` (stereo partly drawn) [Compound C186, 1-(2-Chlorophenyl)-2-(3-chlorophenyl)-2-methylpropyl ((S)-3-cyclohexyl-1-(((S)-4-(cyclopropylamino)-3,4-dioxo-1-((S)-2-oxopyrrolidin-3-yl)butan-2-yl)amino)-1-oxopropan-2-yl) carbamate], the IC50 under setting [1] was determined as 1240 nM.
`CC(C)C[C@H](NC(=O)OC(c1cccc(Cl)c1)C1(c2cccc(Cl)c2)CC1)C(=O)N[C@@H](C[C@@H]1CCNC1=O)C(=O)C(=O)NC1CC1` (stereo partly drawn) [Compound C187, (3-chlorophenyl)(1-(3-chlorophenyl)cyclopropyl)methyl ((S)-1-(((S)-4-(cyclopropylamino)-3,4-dioxo-1-((S)-2-oxopyrrolidin-3-yl)butan-2-yl)amino)-4-methyl-1-oxopentan-2-yl)carbamate]: under setting [1], the IC50 was found to be 109 nM.
Take `CC(C)(C)C(=O)N1CCC2(CC1)CC(CC(NC(=O)[C@H](CC1CCCCC1)NC(=O)OCc1cccc(Cl)c1)C(=O)C(=O)NC1CC1)C(=O)N2` (stereo partly drawn) [Compound C188, 3-Chlorobenzyl ((2S)-3-cyclohexyl-1-((4-(cyclopropylamino)-3,4-dioxo-1-(2-oxo-8-pivaloyl-1,8-diazaspiro[4.5]decan-3-yl)butan-2-yl)amino)-1-oxopropan-2-yl)carbamate]: the IC50 under setting [1] stood at 1890 nM.
The same measure, in the same setting: the figure for `CS(=O)(=O)N1CCC2(CC1)CC(CC(C=O)NC(=O)[C@H](CC1CCCCC1)NC(=O)OC1CCCC1Cc1cccc(Cl)c1)C(=O)N2` (stereo partly drawn) [Compound C189, 2-(3-Chlorobenzyl)cyclopentyl ((2S)-3-cyclohexyl-1-((1-(8-(methylsulfonyl)-2-oxo-1,8-diazaspiro[4.5]decan-3-yl)-3-oxopropan-2-yl)amino)-1-oxopropan-2-yl)carbamate] is 340 nM; for `COc1cccc2[nH]c(C(=O)N[C@@H](CC3CCCCC3)C(=O)NC(CC3CC4(CCOCC4)NC3=O)C(=O)C(=O)NC3CC3)cc12` (stereo partly drawn) [Compound C191, N-((2S)-3-Cyclohexyl-1-((4-(cyclopropylamino)-3,4-dioxo-1-(2-oxo-8-oxa-1-azaspiro[4.5]decan-3-yl)butan-2-yl)amino)-1-oxopropan-2-yl)-4-methoxy-1H-indole-2-carboxamide] it is 305 nM.
With `O=C(N[C@@H](CC1CCCCC1)C(=O)NC(CC1CC2(CCCCC2)NC1=O)C(=O)C(=O)NC1CC1)OC1CCCC1Cc1cccc(Cl)c1` (stereo partly drawn) [Compound C192, 2-(3-Chlorobenzyl)cyclopentyl ((2S)-3-cyclohexyl-1-((4-(cyclopropylamino)-3,4-dioxo-1-(2-oxo-1-azaspiro[4.5]decan-3-yl)butan-2-yl)amino)-1-oxopropan-2-yl)carbamate], the IC50 under setting [1] is 617 nM.
With `COc1cccc2[nH]c(C(=O)N[C@@H](CC3CCCCC3)C(=O)NC(C=O)CC3CC4(CCCCC4)NC3=O)cc12` (stereo partly drawn) [Compound C193, N-((2S)-3-Cyclohexyl-1-oxo-1-((1-oxo-3-(2-oxo-1-azaspiro[4.5]decan-3-yl)propan-2-yl)amino)propan-2-yl)-4-methoxy-1H-indole-2-carboxamide], the IC50 under setting [1] turned out to be 0.7 nM.
Take `CC(C)C[C@H](NC(=O)OC1(Cc2ccccc2)CCC1)C(=O)N[C@@H](C[C@@H]1CCNC1=O)C(=O)CCl` [Compound C194, 1-Benzylcyclobutyl ((S)-1-(((S)-4-chloro-3-oxo-1-((S)-2-oxopyrrolidin-3-yl)butan-2-yl)amino)-4-methyl-1-oxopentan-2-yl) carbamate]: the IC50 under setting [1] stood at 485 nM.
Take `O=C(N[C@@H](CC1CCCCC1)C(=O)NC(CC1CC2(CCCCC2)NC1=O)C(=O)C(=O)NC1CC1)OC(Cc1cccc(Cl)c1)c1cccc(Cl)c1` (stereo partly drawn) [Compound C195, 1,2-Bis(3-chlorophenyl)ethyl ((2S)-3-cyclohexyl-1-((4-(cyclopropylamino)-3,4-dioxo-1-(2-oxo-1-azaspiro[4.5]decan-3-yl)butan-2-yl)amino)-1-oxopropan-2-yl)carbamate]: under setting [1], the IC50 was 2010 nM.
Same read-out and setting: the figure for `CC(C)C[C@H](NC(=O)OC1CCCC1Cc1cccc(Cl)c1)C(=O)N[C@@H](C[C@@H]1CCNC1=O)C(=O)C(=O)NC1CC1` (stereo partly drawn) [Compound C196, 2-(3-Chlorobenzyl)cyclopentyl ((S)-1-(((S)-4-(cyclopropylamino)-3,4-dioxo-1-((S)-2-oxopyrrolidin-3-yl)butan-2-yl)amino)-4-methyl-1-oxopentan-2-yl)carbamate] is 108 nM.
On the same count and under the same terms, then `O=C(N[C@@H](CC1CCCCC1)C(=O)N[C@@H](CC1CC2(CCCCC2)NC1=O)C(=O)CCl)OCc1cccc(Cl)c1` (stereo partly drawn) [Compound C197, 3-Chlorobenzyl ((2S)-1-(((2S)-4-chloro-3-oxo-1-(2-oxo-1-azaspiro[4.5]decan-3-yl)butan-2-yl)amino)-3-cyclohexyl-1-oxopropan-2-yl)carbamate], with 620 nM.
As for `CC1(C)CC(CC(C=O)NC(=O)[C@H](CC2CCCCC2)NC(=O)OCc2cccc(Cl)c2)C(=O)N1` (stereo partly drawn) [Compound C198, 3-chlorobenzyl ((2S)-3-cyclohexyl-1-((1-(5,5-dimethyl-2-oxopyrrolidin-3-yl)-3-oxopropan-2-yl)amino)-1-oxopropan-2-yl)carbamate], the IC50 under setting [1] was determined as 4.7 nM.
`CC(C)C[C@H](NC(=O)OC1CCCC1Cc1ccccc1)C(=O)N[C@@H](C[C@@H]1CCNC1=O)C(=O)CCl` (stereo partly drawn) [Compound C199, 2-Benzylcyclopentyl ((S)-1-(((S)-4-chloro-3-oxo-1-((S)-2-oxopyrrolidin-3-yl)butan-2-yl)amino)-4-methyl-1-oxopentan-2-yl)carbamate] yielded an IC50 (IC50 (μM)) of 196 nM.
As for `O=C[C@H](CC1CC2(CCOCC2)NC1=O)NC(=O)[C@H](CC1CCCCC1)NC(=O)OCc1cccc(Cl)c1` (stereo partly drawn) [Compound C200, 3-Chlorobenzyl ((2S)-3-cyclohexyl-1-oxo-1-(((2S)-1-oxo-3-(2-oxo-8-oxa-1-azaspiro[4.5]decan-3-yl)propan-2-yl)amino)propan-2-yl)carbamate], the IC50 under setting [1] was determined as 0.65 nM.
